{"source": "patent US20170136008A1", "about": "“OXABICYCLOHEPTANES AND OXABICYCLOHEPTENES FOR THE TREATMENT OF OVARIAN CANCER” (priority 2014, published 2017)", "key": {"[1]": {"test_system": "PEO4 ovarian cancer cell line", "experiment": "MTT cytotoxicity assay, PEO4", "format": "cell-based, human", "conditions": "Homo sapiens, PEO4, read-out: IC50, viability of ovarian cancer cell line", "protocol": "SKOV-3 ovarian cancer cells were purchased from American Type Culture Collection (ATCC) (Manassas, Va.). SKOV-3 cells were cultured in McCoy's 5A medium (ATCC, Manassas, Va.) supplemented with 10% fetal bovine serum and 100 units/mL penicillin G sodium, 100 ug/mL streptomycin sulfate, and 292 μg/ml, L-glutamine (BioWhittaker, Wakersville, Md.). Luciferase-expressing cells were generated by infecting SKOV-3 cells with pCLNCX-luciferase retrovirus (SKOV-3-Luc) as previously reported (Wei, B. R. et al. 2009). Human OVCAR-8 ovarian cancer cells were provided by the National Cancer Institute (part of the NCI-60 collection). The PEO1, PEO4, and PEO6 ovarian cancer cell lines have previously been characterized (Langdon, S. P. et al. 1988) and were kindly provided by Dr. Ian Goldlust (National Center for Advancing Translational Sciences, Shady Grove, Md.). […]\nCell survival was measured by the 3-(4,5-dimethylthiazol-2-yl)-2,5-diphenyltetrazolium bromide (MTT, Invitrogen) assay. […] Absorbance values were determined at […] on a Spectra Max 250 spectrophotometer (Molecular Devices, Sunnyvale, Calif.). […] Cell viability was analyzed via the MTT assay as described above. […]"}, "[2]": {"test_system": "OVCAR-8 PP2Ac shRNA-expressing cells", "experiment": "Cell viability (MTT) assay, OVCAR-8 PP2Ac shRNA", "format": "cell-based, human", "conditions": "Homo sapiens; OVCAR-8 PP2Ac shRNA (knockdown)", "protocol": "Cell survival was measured by the 3-(4,5-dimethylthiazol-2-yl)-2,5-diphenyltetrazolium bromide (MTT, Invitrogen) assay. Cells were seeded at a density of 5,000 cells per well in 96-well plates and incubated at 37° C. in humidified 5% CO2 for 24 hours. The 50% inhibitory concentration (IC50) values were defined as the drug concentrations required to reduce cellular proliferation to 50% of the untreated control well. […] All MTT assays were carried out according to the manufacturer's instructions (Molecular Probes, Eugen, Oreg.). Absorbance values were determined at […] on a Spectra Max 250 spectrophotometer (Molecular Devices, Sunnyvale, Calif.). All MTT assays were performed in triplicate. […] Cells were treated with both drugs for 72 h. Cell viability was analyzed via the MTT assay as described above. Experiments were performed in triplicate, and the data are presented as a percent mean±SD.\nTo stably knockdown expression of PP2AC, a pLKO.1-puro plasmid-based […] shRNA targeting the sequence: […] (clone ID:TRCN0000002483, Sigma-Aldrich) was employed (PP2AC-shRNA). Additionally, a non-targeting shRNA plasmid (NT-shRNA) that targets no known human sequence was utilized as a control. […]"}, "[3]": {"test_system": "HEK 293 human embryonic kidney cell lines overexpressing Pgp, MRP1, or ABCG2", "experiment": "IC50 in ABC transporter-overexpressing HEK 293 lines", "format": "cell-based", "conditions": "HEK 293 overexpressing Pgp", "protocol": "When HEK 293 human embryonic kidney cell lines overexpressing Pgp, MRP1, or ABCG2 (Robey, R. W. et al. 2005) were treated with equal concentration of LB100, the IC50s of the transfected lines were not different compared with parent (non-transporter-expressing) cells or in the presence of an inhibitor (tariquidar) (FIG. 5)."}, "[4]": {"test_system": "DNA damage response, checkpoint and apoptosis proteins in SKOV-3 cells", "experiment": "Immunoblotting, SKOV-3 cells", "format": "cell-based, human", "protocol": "(§1) Whole cell and homogenized tumor tissues were lysed in NP-40 lysis buffer [50 mM Tris/HCl, pH 7.4, 150 mM NaCl and 1% Nonidet P40, supplemented with Complete Protrase Inhibitor Cocktail tablets and PhosStop phosphatase inhibitors (Roche, Indianapolis, Ind.)] and prepared as previously described (Madigan, J. P. et al. 2009). Protein (40 μg) was resolved on SDS/PAGE (12% or 15% gels) and transferred onto Immobilon PVDF membrane. The membrane was then blocked for 1 hour at room temperature in 5% (w/v) non-fat milk in TBS-Tween and probed overnight with primary antibodies. After extensive washing, cells were probed with anti-rabbit or anti-mouse IgG-horseradish per oxidase (HRP)-conjugated secondary antibodies (Cell Signaling Technology, Danvers, Mass.) in blocking buffer for 1 h. Membranes were subsequently incubated in Immobilon Western blot Chemiluminescent HRP Substrate (Millipore) and developed on biomax XAR film (Kodak). Antibodies were purchased from Cell Signaling Technology: γH2AX (Ser139), p-Wee1 (Ser 642), Wee1, p-cdc2 (Tyr15), p-BRCA1 (Ser1524), p-Chk1 (Ser345), p-Chk1 (Ser317), Chk-1, phospho-Chk2 (Thr68), PP2Ac, cleaved caspase-3 (Asp175), cleaved PARP (Asp214), p-histone H3 (Ser10), p-ATR (Ser428), and p-(Ser)14-3-3 binding motif."}, "[5]": {"test_system": "p-Chk1 (S345) and apoptosis proteins in OVCAR-8 cells", "experiment": "Immunoblotting, OVCAR-8 cells", "format": "cell-based, human", "conditions": "after 1 h cisplatin, recovery up to 8 h, vs media alone", "protocol": "as §1, with “motif. […]” for “motif.”"}}}
{"smiles": "CN1CCN(C(=O)C2C(C(=O)O)[C@H]3CC[C@@H]2O3)CC1", "note": "(stereo partly shown) [LB100]", "values": [{"measurement": "IC50", "setting": "[1]", "result": "5 ± 0.6", "unit": "µM"}, {"measurement": "IC50", "setting": "[2]", "result": "3.9 ± 0.9", "unit": "µM"}, {"measurement": "IC50s of transfected lines compared with parent cells or in the presence of tariquidar", "setting": "[3]", "result": "not different"}, {"measurement": "expression of p-Ser14-3-3 binding motifs compared to control treatment", "setting": "[4]; LB100-treated SKOV-3 cells", "result": "widespread increased expression"}, {"measurement": "phosphorylation of γH2AX, Chk2, and BRCA1 at 24 h, and JNK at 72 h", "setting": "[4]; SKOV-3, LB100", "result": "enhanced and prolonged"}, {"measurement": "phosphorylation of Wee-1 compared to control", "setting": "[4]; SKOV-3, LB100 5 μM, 24 h", "result": "induced hyperphosphorylation"}, {"measurement": "phosphorylation of Chk1 at S345", "setting": "[5]", "result": "significantly increased"}]}
